For experiment [1], the target named is TASK-1 (Homo sapiens, UniProt O14649, T199A). Nature of the experiment: two-electrode voltage clamp, Xenopus oocytes. Format: cell-based. The conditions noted are these: read-out: % inhibition at 400 nM. (In general: Two-electrode voltage clamp is typically applied to oocytes expressing channels or transporters.)
In experiment [2] the target is TASK-1 (Homo sapiens, UniProt O14649, T93A). Nature of the experiment: two-electrode voltage clamp, Xenopus oocytes. The conditions noted are these: read-out: % inhibition at 400 nM. Format: cell-based.

The results in this text go back to article PMC3077598 (The Journal of Biological Chemistry, 2011).

Sequence of TASK-1 (Homo sapiens, UniProt O14649, T93A) (O14649 whole entry T93A): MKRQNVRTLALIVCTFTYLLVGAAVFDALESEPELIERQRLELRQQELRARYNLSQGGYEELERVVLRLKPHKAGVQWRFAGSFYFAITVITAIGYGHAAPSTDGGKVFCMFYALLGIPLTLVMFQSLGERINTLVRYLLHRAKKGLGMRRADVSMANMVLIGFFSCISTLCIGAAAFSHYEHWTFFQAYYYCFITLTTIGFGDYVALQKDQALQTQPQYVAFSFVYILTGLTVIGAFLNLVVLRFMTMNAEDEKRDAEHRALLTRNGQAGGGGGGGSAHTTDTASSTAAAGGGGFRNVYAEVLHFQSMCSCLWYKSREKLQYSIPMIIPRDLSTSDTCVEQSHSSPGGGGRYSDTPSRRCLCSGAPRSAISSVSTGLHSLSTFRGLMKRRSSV
Sequence of TASK-1 (Homo sapiens, UniProt O14649, T199A) (O14649 whole entry T199A): as the sequence (O14649 whole entry T93A) above, with A93T, T199A counted along it

As a reminder, the inhibition is the share of the control response that was lost under treatment. Take `COc1ccc(CC(=O)NCc2ccccc2-c2ccccc2C(=O)NCc2ccc(F)cc2F)cc1` [A1899]: the inhibition at 0.4 µM is 36.4 ± 6.4% on TASK-1 [1] and 26.4 ± 6.4% on TASK-1 [2].
